# Several values for one entry are separate records, joined by “and”; a condition that tells them apart may be missing. Equal entries are not always repeated.
# Columns and labels:
# Type in all cases: cell-based
# [1] = tested on: Pseudomonas spec. DSM 115322; assay: Minimum inhibitory concentrations and synergy index in Müller-Hinton broth; details: for QA: Concentration of guanidine as the sole agent that shows an endpoint: guanidine (added as guanidine hydrochloride) alone, 48 hours at 30° C.
# [2] = tested on: bacteria mixture A; assay: Emulsion paint inoculated three times with bacteria mixture A, live bacteria count CFU/g; details: for CFU/g after inoculation: emulsion paint, 7 d
# Description: In example 34, the synergistic interaction between guanidine and a zinc compound (zinc oxide) with respect to microbial infestation was examined in an emulsion paint by adding particular amounts of guanidine in the form of guanidine hydrochloride and a zinc compound in the form of zinc oxide, and tested for stability to microbial infestation. The paint tested was an emulsion paint based on styrene-acrylate binder (PVK 77%, pH 8.8) for indoor use, produced in the laboratory, without addition of the usual preservatives.
# The samples were inoculated repeatedly, three times in total, with a bacterial cell suspension of the following composition (2% v/w).
# • Alcaligenes faecalis NCIMB 13145 • Escherichia coli DSM 13631 • Burkholderia cepacia DSM 9241 • Staphylococcus aureus DSM 799 • Pseudomonas aeruginosa DSM 50071 • Pseudomonas putida DSM 13624
# The cell suspension of the bacteria mixture A was produced by growing the individual bacteria at 30° C. for 24 h in liquid culture on a shaker. The growth medium used for the bacteria was Müller-Hinton liquid medium. After growing, the individual liquid cultures were centrifuged, and the cells were resuspended in physiological saline solution. In order to adjust the mixture to a total cell count of 10^9/ml, the individual bacteria suspensions, if necessary, were diluted accordingly before being combined with saline solution. The cell count of the inoculum was determined in each case by chamber counting.
# After each inoculation and after incubation at 30° C. for 7 days, microbial infestation was evaluated in the samples by determining the live bacteria count per g of paint (colony-forming units, CFU/g). The CFU/g was determined each time by taking an aliquot (1 g) from the previously homogenized sample and running a serial decadic dilution series in physiological saline solution (0.9% NaCl) by streaking on tryptic soy agar, followed by incubation of the agar plates at 30° C. for 48 h.
# [3] = tested on: yeast mixture; assay: All-purpose detergent inoculated once with yeast mixture, semiquantitative growth evaluation; parameters: key: 0: No growth; Minimal growth, 1 to 10 colonies visible over the entire streak; 2: Light growth, maximum 100 colonies; Moderate growth, maximum 300 to 400 colonies; Uniform growth, >400 colonies, single colonies still clearly recognizable; 5: Heavy growth, too many colonies to count, but no growth over the entire streak; 6: Full growth, barely any single colonies still apparent, growth over the entire streak; details: Example 38, all-purpose detergent, +8000 ppm guanidine hydrochloride (4944 ppm guanidine)
# Description: In examples 35 to 38 below, synergistic interaction between guanidine and antimicrobial substances with respect to microbial infestation was studied using an emulsion paint and a laundry detergent or cleaning composition by adding particular amounts of guanidine salts and isothiazolinones and examining their stability against microbial infestation: […] The laundry detergent was a heavy-duty laundry detergent without preservatives (pH 8.1), and the cleaning composition was an all-purpose detergent without preservatives (pH 7.6), each likewise made in the laboratory, without addition of the otherwise usual conventional preservatives. To each paint was added—individually and in combination—particular concentrations of guanidinium hydrochloride, benzisothiazolinone (BIT), and a mixture of chloromethylisothiazolinone (CIT) and methylisothiazolinone (MIT). The laundry detergent and the cleaning composition were admixed with particular concentrations of guanidinium hydrochloride and benzisothiazolinone (BIT). The resultant batches of the paint thus prepared were inoculated with a mixture of different bacteria species (bacteria mixture B); the batches of the laundry detergent and cleaning compositions thus prepared were inoculated with a yeast mixture. • Pichia manshurica DSM 12249 • Rhodotorula mucilaginosa DSM 12248 • Candida boidinii DSM 13622 • Candida albicans DSM 1386 […] Further steps for establishment of a cell count of the inoculum suspension of 10^8/ml were effected analogously to the production of the bacteria suspension. […] The streaked agar plates were then incubated at 30° C. for 48 hours (bacteria) or at 25° C. for 72 hours (yeasts). After incubation, the bacterial or yeast colonies that have grown on the agar plates were visually evaluated and quantified according to the following scheme: [table]
smiles,measurement,setting,value
N=C(N)N [guanidine],QA: Concentration of guanidine as the sole agent that shows an endpoint,[1]; MHB adjusted to pH 5.5,12359 ppm
same,QA: Concentration of guanidine as the sole agent that shows an endpoint,[1]; MHB,9269 ppm and 9105 ppm
same,Synergy index Qa/QA + Qb/QB,[1]; guanidine and AEPD,1.00
same,Synergy index Qa/QA + Qb/QB,[1]; guanidine and AMP,1.00
same,Synergy index Qa/QA + Qb/QB,[1]; guanidine and BBIT,1.00
same,Synergy index Qa/QA + Qb/QB,[1]; guanidine and BIT,1.00
same,Synergy index Qa/QA + Qb/QB,[1]; guanidine and DBDCB,1.00
same,Synergy index Qa/QA + Qb/QB,[1]; guanidine and DBNPA,1.00
same,Synergy index Qa/QA + Qb/QB,[1]; guanidine and EDTA,1.00
same,Synergy index Qa/QA + Qb/QB,[1]; guanidine and EHG,1.00
same,Synergy index Qa/QA + Qb/QB,[1]; guanidine and HEDP,1.00
same,Synergy index Qa/QA + Qb/QB,[1]; guanidine and IPBC,1.00
same,Synergy index Qa/QA + Qb/QB,[1]; guanidine and MBIT,1.00
same,Synergy index Qa/QA + Qb/QB,[1]; guanidine and MEA,1.00
same,Synergy index Qa/QA + Qb/QB,[1]; guanidine and MIT,1.00
same,Synergy index Qa/QA + Qb/QB,[1]; guanidine and OIT,1.00
same,Synergy index Qa/QA + Qb/QB,"[1]; guanidine and benzoic acid, pH 5.5",1.00
same,Synergy index Qa/QA + Qb/QB,[1]; guanidine and benzyl alcohol,1.00
same,Synergy index Qa/QA + Qb/QB,[1]; guanidine and bronopol,1.00
same,Synergy index Qa/QA + Qb/QB,"[1]; guanidine and citric acid, pH 5.5",1.00
same,Synergy index Qa/QA + Qb/QB,"[1]; guanidine and heptane-1,2-diol",1.00
same,Synergy index Qa/QA + Qb/QB,"[1]; guanidine and hexane-1,2-diol",1.00
same,Synergy index Qa/QA + Qb/QB,[1]; guanidine and hexylglycerol,1.00
same,Synergy index Qa/QA + Qb/QB,[1]; guanidine and isopropanol,1.00
same,Synergy index Qa/QA + Qb/QB,"[1]; guanidine and lactic acid, pH 5.5",1.00
same,Synergy index Qa/QA + Qb/QB,[1]; guanidine and oPP,1.00
same,Synergy index Qa/QA + Qb/QB,"[1]; guanidine and octane-1,2-diol",1.00
same,Synergy index Qa/QA + Qb/QB,"[1]; guanidine and pentane-1,2-diol",1.00
same,Synergy index Qa/QA + Qb/QB,[1]; guanidine and phenethyl alcohol,1.00
same,Synergy index Qa/QA + Qb/QB,[1]; guanidine and phenoxyethanol,1.00
same,Synergy index Qa/QA + Qb/QB,[1]; guanidine and phenylpropanol,1.00
same,Synergy index Qa/QA + Qb/QB,[1]; guanidine and pyrithione,1.00
same,Synergy index Qa/QA + Qb/QB,"[1]; guanidine and salicylic acid, pH 5.5",1.00
same,Synergy index Qa/QA + Qb/QB,"[1]; guanidine and sorbic acid, pH 5.5",1.00
same,CFU/g after inoculation,"[2]; Guanidine hydrochloride 1000 ppm (618 ppm guanidine), 1. inoculation",8.7 × 10^5 CFU/g
same,CFU/g after inoculation,"[2]; Guanidine hydrochloride 1000 ppm (618 ppm guanidine), 2. inoculation",>10^6 CFU/g
same,CFU/g after inoculation,"[2]; Guanidine hydrochloride 1000 ppm (618 ppm guanidine), 3. inoculation",>10^6 CFU/g
same,CFU/g after inoculation,"[2]; Guanidine hydrochloride 2500 ppm (1545 ppm guanidine), 1. inoculation",<100 CFU/g
same,CFU/g after inoculation,"[2]; Guanidine hydrochloride 2500 ppm (1545 ppm guanidine), 2. inoculation",<100 CFU/g
same,CFU/g after inoculation,"[2]; Guanidine hydrochloride 2500 ppm (1545 ppm guanidine), 3. inoculation",>10^6 CFU/g
same,CFU/g after inoculation,"[2]; Guanidine hydrochloride 5000 ppm (3090 ppm guanidine), 1. inoculation",<100 CFU/g
same,CFU/g after inoculation,"[2]; Guanidine hydrochloride 5000 ppm (3090 ppm guanidine), 2. inoculation",<100 CFU/g
same,CFU/g after inoculation,"[2]; Guanidine hydrochloride 5000 ppm (3090 ppm guanidine), 3. inoculation",<100 CFU/g
same,QA: Concentration of guanidine as the sole agent that shows an endpoint,"[2]; guanidine alone in emulsion paint, endpoint after 3 inoculations up to a maximum of 1000 CFU/g",3090 ppm
same,Synergy index Qa/QA + Qb/QB,"[2]; guanidine and zinc in emulsion paint, Qa, Qb",1.00
same,Yeast growth,[3]; Day 1,6
same,Yeast growth,[3]; Day 3,"4 (Uniform growth, >400 colonies, single colonies still clearly recognizable)"
